According to publication PMC6498869, “Structural and mutational analyses of psychrophilic and mesophilic adenylate kinases highlight the role of hydrophobic interactions in protein thermal stability” (Structural Dynamics, 2019):

Key:
Assay in all cases: ATP formation, hexokinase/G6PDH end-point assay
Format in all cases: biochemical
Conditions in all cases: 2.5 mM ADP, 2 mM MgCl2, 100 mM KCl, HEPES pH 7.4, 5-65 °C
[1] = molecular target: T1, AKm (Bacillus subtilis, UniProt P16304, I26T)
T1 construct: gene adk; full length (residues 1-217), pET11a, E. coli BL21 (DE3); Affi-Gel blue and size exclusion, no tag mentioned
T1 sequence (P16304 whole entry I26T, the tested form may be a part): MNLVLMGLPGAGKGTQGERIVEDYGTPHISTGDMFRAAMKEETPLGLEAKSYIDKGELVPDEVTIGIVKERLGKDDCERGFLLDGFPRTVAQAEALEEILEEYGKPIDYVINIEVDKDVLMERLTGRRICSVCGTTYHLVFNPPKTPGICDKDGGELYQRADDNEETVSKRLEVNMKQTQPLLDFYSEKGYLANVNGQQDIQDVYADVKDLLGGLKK

[2] = molecular target: T2, AKm (Bacillus subtilis, UniProt P16304)
T2 construct: gene adk; full length (residues 1-217), pET11a, E. coli BL21 (DE3); Affi-Gel blue and size exclusion, no tag mentioned
T2 sequence (P16304 whole entry, the tested form may be a part): as the sequence (P16304 whole entry I26T, the tested form may be a part) above, with T26I counted along it

[3] = molecular target: T3, AKp (Sporosarcina globispora, UniProt P84139, T26I)
T3 construct: gene adk; full length (residues 1-217), pET30a, E. coli BL21 (DE3); Affi-Gel blue and size exclusion, no tag mentioned
T3 sequence (P84139 whole entry T26I, the tested form may be a part): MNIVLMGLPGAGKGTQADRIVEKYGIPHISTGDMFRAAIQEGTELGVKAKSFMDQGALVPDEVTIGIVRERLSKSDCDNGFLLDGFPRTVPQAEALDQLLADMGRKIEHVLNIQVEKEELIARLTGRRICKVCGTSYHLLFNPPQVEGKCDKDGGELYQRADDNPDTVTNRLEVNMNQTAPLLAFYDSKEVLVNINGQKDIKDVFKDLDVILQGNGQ

[4] = molecular target: T4, AKp (Sporosarcina globispora, UniProt P84139)
T4 construct: gene adk; full length (residues 1-217), pET30a, E. coli BL21 (DE3); Affi-Gel blue and size exclusion, no tag mentioned
T4 sequence (P84139 whole entry, the tested form may be a part): as the sequence (P84139 whole entry T26I, the tested form may be a part) above, with I26T counted along it

Nc1ncnc2c1ncn2[C@@H]1O[C@H](COP(=O)(O)OP(=O)(O)O)[C@@H](O)[C@H]1O [ADP]
ATP formation, hexokinase/G6PDH end-point assay [1]: The activity assays of WT AKm and the I26T mutant also showed consistent results | ATP formation, hexokinase/G6PDH end-point assay [2]: The activity assays of WT AKm and the I26T mutant also showed consistent results | ATP formation, hexokinase/G6PDH end-point assay [3]: we determined the temperature dependence of the activities of WT AKp and its T26I mutant | ATP formation, hexokinase/G6PDH end-point assay [4]: we determined the temperature dependence of the activities of WT AKp and its T26I mutant
